From patent US11090304B2 (Amgen Inc., priority 2018, dated 2021)
Read-outs that look alike come from different tables or passages of the source.

Key:
[1] = system: Phosphorylation of ERK1/2 in A549 cells; test: Phospho-ERK1/2 MSD assay in A549 cells; type: cell-based
Description: For compounds in Table 89, the following assay conditions were employed:
Phospho-ERK1/2 MSD Assay:
Sixteen hours prior to compound treatment, MIA PaCa-2 or A549 cells were seeded in 96-well cell culture plates at a density of 25,000 cells/well and incubated at 37° C., 5% CO2. A compound dose-response titration was diluted in growth media, added to appropriate wells of a cell culture plate, and then incubated at 37° C., 5% CO2 for 2 or 4 hours (see Table 15). Following compound treatment, cells were stimulated with 10 ng/mL EGF (Roche 11376454001) for 10 min, washed with ice-cold Dulbecco's phosphate-buffered saline, no Ca^2+ or Mg^2+ (ThermoFisher Scientific 14190144), and then lysed in RIPA buffer (50 mM Tris-HCl pH 7.5, 1% Igepal, 0.5% sodium deoxycholate, 150 mM NaCl, and 0.5% sodium dodecyl sulfate) containing protease inhibitors (Roche 4693132001) and phosphatase inhibitors (Roche 4906837001). Phosphorylation of ERK1/2 in compound-treated lysates was assayed using Phospho-ERK1/2 Whole Cell Lysate kits (Meso Scale Discovery K151DWD) according to the manufacturer's protocol. Assay plates were read on a Meso Scale Discovery Sector Imager 6000, and data were analyzed using a 4-parameter logistic model to calculate IC50 values.

[2] = system: Phosphorylation of ERK1/2 in MIA PaCa-2 cells; test: Phospho-ERK1/2 MSD assay in MIA PaCa-2 cells; type: cell-based
Outline: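 MSD electrochemiluminescence readout of phospho-ERK1/2 in whole-cell lysates, IC50 by 4-parameter logistic fit. Compound titrations were applied for 2 or 4 h at 37 °C, 5% CO2, followed by 10 ng/mL EGF stimulation for 10 min before lysis.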

[3] = target: GDP-bound KRAS protein (aa 1-169), containing both G12C and C118A amino acid substitutions (Homo sapiens, UniProt P01116, C118A/G12C); test: Coupled nucleotide exchange assay (SOS-mediated, AlphaScreen); type: biochemical; settings: 5 min compound pre-incubation
[4] = Homo sapiens, A549, 2 h, read-out: p-ERK IC50 (2 h; A549), 2 h compound treatment
[5] = read-out: p-ERK IC50 (2 h; MIA PaCa-2), 2 h compound treatment
[6] = Homo sapiens, A549, 4 h, read-out: p-ERK IC50 (4 h; A549), 4 h compound treatment
[7] = Homo sapiens, MIA PaCa-2, 4 h, read-out: p-ERK IC50 (4 h; MIA PaCa-2), 4 h compound treatment
[8] = Homo sapiens, MIA PaCa-2, 2 h, read-out: p-ERK IC50 (2 h; MIA PaCa-2), 2 h compound treatment

Chain of GDP-bound KRAS protein (aa 1-169), containing both G12C and C118A amino acid substitutions (P01116 1-169 isoform P01116-2 G12C/C118A): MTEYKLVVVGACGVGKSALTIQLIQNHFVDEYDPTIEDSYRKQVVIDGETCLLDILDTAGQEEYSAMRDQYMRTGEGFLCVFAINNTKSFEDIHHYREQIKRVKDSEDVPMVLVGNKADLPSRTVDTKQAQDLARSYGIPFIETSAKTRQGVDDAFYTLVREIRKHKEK

SMILES	IC50 [1, 4] [nM]	IC50 [2, 8] [nM]	Coupled exchange IC50 (5 min) [3]	further results
C=CC(=O)N1CCN(c2nc(=O)n(-c3ccccc3C(C)C)c3cc(Br)c(Cl)cc23)[C@@H](C)C1 (single isomer, unassigned) [Example 9-17-1]	–	–	–	IC50 ([1]; read-out: p-ERK IC50 (4 h; A549), 4 h compound treatment): 75800 nM; IC50 ([2]; read-out: p-ERK IC50 (4 h; MIA PaCa-2), 4 h compound treatment): 2180 nM
C=CC(=O)N1CCN(c2nc(=O)n(-c3ccccc3C(C)C)c3nc(-c4ccccc4Cl)c(Cl)cc23)[C@@H](C)C1 (single isomer, unassigned) [Example 54-84-1]	≥ 100000	–	–	IC50 [2, 5]: 744 nM
C=CC(=O)N1CCN(c2nc(=O)n(-c3ccccc3C(C)C)c3nc(-c4ccccc4F)c(Cl)cc23)[C@@H](C)C1 (single isomer, unassigned) [Example 54-86-1]	≥ 10000	–	–	IC50 [2, 5]: 670 nM
C=CC(=O)N1CCN(c2nc(=O)n(-c3ccccc3C(C)C)c3nc(-c4c(O)cccc4F)c(Cl)cc23)CC1 (single isomer, unassigned) [Example 60-24-1, (M)-6-chloro-7-(2-fluoro-6-hydroxyphenyl)-1-(2-(2-propanyl)phenyl)-4-(4-(2-propenoyl)-1-piperazinyl)pyrido[2,3-d]pyrimidin-2(1H)-one]	≥ 100000	–	–	–
C=CC(=O)N1CCN(c2nc(=O)n(-c3ccccc3C(C)C)c3cc(-c4ccccc4F)c(Cl)cc23)[C@@H](C)C1 (single isomer, unassigned) [Example 62-1-1]	≥ 10000	–	–	IC50 [2, 5]: 431 nM
C=CC(=O)N1CCN(c2nc(=O)n(-c3ccccc3C(C)C)c3cc(-c4ccccc4F)c(Cl)cc23)CC1 (single isomer, unassigned) [Example 88-1, 6-chloro-7-(2-fluorophenyl)-1-(2-(2-propanyl)phenyl)-4-(4-(2-propenoyl)-1-piperazinyl)-2(1H)-quinazolinone]	≥ 10000	–	–	–
C=CC(=O)N1CCN(c2nc(=O)n(-c3ccccc3C(C)C)c3c(C)c(-c4c(O)cccc4F)c(Cl)cc23)[C@@H](C)C1 (single isomer, unassigned) [Example 90-1]	–	–	–	IC50 [1, 6]: ≥ 33300 nM; IC50 [2, 7]: 221 nM
C=CC(=O)N1CCN(c2nc(=O)n(-c3ccccc3C(C)C)c3cc(Br)c(Cl)cc23)[C@@H](C)C1 [Example 9-17]	–	–	–	IC50 [1, 6]: 74400 nM; IC50 [2, 7]: 1110 nM
C=CC(=O)N1CCN(c2nc(=O)n(C(CC)CC)c3nc(-c4ccccc4F)c(Cl)cc23)[C@@H](C)C1 [Example 54-2, 6-chloro-7-(2-fluorophenyl)-4-((2S)-2-methyl-4-(2-propenoyl)-1-piperazinyl)-1-(3-pentanyl) pyrido[2,3-d]pyrimidin-2(1H)-one]	≥ 100000	66600	–	IC50 [1, 6]: ≥ 100000 nM; IC50 [2, 7]: 55600 nM
C=CC(=O)N1CCN(c2nc(=O)n(-c3c(CC)cccc3CC)c3nc(C4CCCC4)c(Cl)cc23)[C@@H](C)C1 [Example 54-4, 6~chloro-7-cyclopentyl-1-(2,6-diethylphenyl)-4-((2S)-2-methyl-4-(2-propenoyl)-1-piperazinyl) pyrido[2,3-d]pyrimidin-2(1H)-one]	48900	2250	–	–
C=CC(=O)N1CCN(c2nc(=O)n(-c3c(CC)cccc3CC)c3nc(-c4c(C)ccc5[nH]ncc45)c(Cl)cc23)[C@@H](C)C1 [Example 54-66, 6-chloro-1-(2,6-diethylphenyl)-7-(5-methyl-1H-indazol-4-yl)-4-((2S)-2-methyl-4-(2-propenoyl)-1-piperazinyl) pyrido[2,3-d]pyrimidin-2(1H)-one]	≥ 10000	100	–	IC50 [1, 6]: ≥ 100000 nM; IC50 [2, 7]: 122 nM
C=CC(=O)N1CCN(c2nc(=O)n([C@@H]3CCc4ccccc43)c3nc(-c4ccccc4F)c(Cl)cc23)[C@@H](C)C1 [Example 54-67, 6-chloro-1-((1R)-2,3-dihydro-1H-inden-1-yl)-7-(2-fluorophenyl)-4-((2S)-2-methyl-4-(2-propenoyl)-1-piperazinyl) pyrido[2,3-d]pyrimidin-2(1H)-one]	≥ 10000	≥ 10000	–	–
C=CC(=O)N1CCN(c2nc(=O)n(-c3ccccc3C(C)C)c3cc(-c4ccccc4C(F)(F)F)c(Cl)cc23)[C@@H](C)C1 [Example 62-2, 6-chloro-4-((2S)-2-methyl-4-(2-propenoyl)-1-piperazinyl)-1-(2-(2-propanyl)phenyl)-7-(2-(trifluoromethyl)phenyl)-2(1H)-quinazolinone]	≥ 10000	–	–	–

More lines, main results first:

IC50 [1, 4] [nM]	IC50 [2, 8] [nM]	Coupled exchange IC50 (5 min) [3]	SMILES	further results
–	198	0.119 | nda μM	C=CC(=O)N1CCN(c2nc(=O)n(-c3c(Cl)ncnc3C(C)C)c3nc(-c4ccccc4F)c(Cl)cc23)[C@@H](C)C1 [Example 133, 6-Chloro-1-(4-chloro-6-(2-propanyl)-5-pyrimidinyl)-7-(2-fluorophenyl)-4-((2S)-2-methyl-4-(2-propenoyl)-1-piperazinyl)pyrido[2,3-d]pyrimidin-2(1H)-one]	–
–	121	0.135 | nda μM	C=CC(=O)N1CCN(c2nc(=O)n(-c3c(C)cc(N)nc3C(C)C)c3nc(-c4ccccc4F)c(Cl)cc23)[C@@H](C)C1 [Example 136, 1-(6-Amino-4-methyl-2-(2-propanyl)-3-pyridinyl)-6-chloro-7-(2-fluorophenyl)-4-((2S)-2-methyl-4-(2-propenoyl)-1-piperazinyl)pyrido[2,3-d]pyrimidin-2(1H)-one]	–
–	1790	0.5 | nda μM	C=CC(=O)N1CCN(c2nc(=O)n(-c3c(C)cc(O)nc3C(C)C)c3nc(-c4ccccc4F)c(Cl)cc23)[C@@H](C)C1 [Example 137, 6-chloro-7-(2-fluorophenyl)-1-(4-methyl-6-oxo-2-(2-propanyl)-1,6-dihydro-3-pyridinyl)-4-((2S)-2-methyl-4-(2-propenoyl)-1-piperazinyl)pyrido[2,3-d]pyrimidin-2(1H)-one]	–
–	1590	1.75 | nda μM	C=CC(=O)N1CCN(c2nnc(-c3c(C(C)C)cccc3C(C)C)c3nc(-c4ccccc4F)c(Cl)cc23)[C@@H](C)C1 [Example 138, 1-((3S)-4-(3-Chloro-8-(2,6-di(2-propanyl)phenyl)-2-(2-fluorophenyl)pyrido[2,3-d]pyridazin-5-yl)-3-methyl-1-piperazinyl)-2-propen-1-one]	–
–	25	0.117 | nda μM	C=CC(=O)N1CCN(c2nc(=O)n(-c3c(C(C)C)nc(N)nc3C(C)C)c3nc(-c4ccccc4F)c(Cl)cc23)[C@@H](C)C1 [Example 139, 1-(2-Amino-4,6-di(2-propanyl)-5-pyrimidinyl)-6-chloro-7-(2-fluorophenyl)-4-((2S)-2-methyl-4-(2-propenoyl)-1-piperazinyl)pyrido[2,3-d]pyrimidin-2(1H)-one]	–
–	96	0.09 | nda μM	C=CC(=O)N1CCN(c2nc(=O)n(-c3c(C(C)C)ncnc3N(C)C)c3nc(-c4ccccc4F)c(Cl)cc23)[C@@H](C)C1 [Example 140, 6-Chloro-1-(4-(dimethylamino)-6-(2-propanyl)-5-pyrimidinyl)-7-(2-fluorophenyl)-4-((2S)-2-methyl-4-(2-propenoyl)-1-piperazinyl)pyrido[2,3-d]pyrimidin-2(1H)-one]	–
–	5200	0.393 | nda μM	C=CC(=O)N1CCN(c2nc(=O)n(-c3c(C)cc(C(=O)O)cc3C(C)C)c3nc(-c4ccccc4F)c(Cl)cc23)[C@@H](C)C1 [Example 141, 4-(6-Chloro-7-(2-fluorophenyl)-4-((2S)-2-methyl-4-(2-propenoyl)-1-piperazinyl)-2-oxopyrido[2,3-d]pyrimidin-1(2H)-yl)-3-methyl-5-(2-propanyl)benzoic acid]	–
–	103	0.108 | nda μM	C=CC(=O)N1CCN(c2nc(=O)n(-c3c(N)cccc3C(C)C)c3nc(-c4ccccc4F)c(Cl)cc23)[C@@H](C)C1 [Example 155, 1-(2-Amino-6-(2-propanyl)phenyl)-6-chloro-7-(2-fluorophenyl)-4-((2S)-2-methyl-4-(2-propenoyl)-1-piperazinyl)pyrido[2,3-d]pyrimidin-2(1H)-one]	–
–	80	0.057 | nda μM	C=CC(=O)N1CCN(c2nc(=O)n(-c3c(C)cc(C(=O)OC)cc3C(C)C)c3nc(-c4ccccc4F)c(Cl)cc23)[C@@H](C)C1 [Example 156, Methyl 4-(6-chloro-7-(2-fluorophenyl)-4-((2S)-2-methyl-4-(2-propenoyl)-1-piperazinyl)-2-oxopyrido[2,3-d]pyrimidin-1(2H)-yl)-3-methyl-5-(2-propanyl)benzoate]	–
